According to patent US4439448A, “Glutamine derivatives” (Mitsubishi Chemical Industries Ltd., priority 1980, dated 1984):
Counter-ions that a name gives are not always drawn.

Key:
delayed hypersensitibity = experiment: TEST 3 effects on delayed hypersensitivity (sheep red blood cell paw edema); format: in vivo, mice, ddY strain; conditions: four consecutive days
Description: Into the palms of the right rear limbs of mice (ddY strain, weighing 25-30 g) was injected 40 μl of sheep red blood cells the concentration of which was adjusted to 1×10^7 /40 μl. The test drug was administered intraperitoneally or orally for four consecutive days inclusive of the day of sheep red blood cell administration. Three days after the day of sheep red blood cell administration, 40 μl of sheep red blood cells which were adjusted to have a concentration of 5×10^8 /40 μl were administered into the palms of the left rear limbs. After 24 hours, the thickness of the palms of the right and left rear limbs was measured. The edema was expressed as the difference in thickness between the palms of the left and right rear limbs. The results are shown in FIG. 3, in which the edema in the medicated group is expressed as percent control which means the percentage of the edema found in the group in which physiological saline is applied (control group).

[1] = system: plaque forming cells in the spleen of mice; experiment: TEST 2 effect on plaque forming cells in the spleen of mice inoculated with sheep red blood cells, C3H/He (Run 2); format: in vivo, mouse; conditions: 7 weeks, I.P. sheep cells, four consecutive days
Description: (§1) Mice were inoculated by intravascular or intraperitoneal administration of 1×10^8 sheep cells per animal. Each group consisted of five mice. The test drug was administered orally or intraperitoneally for four consecutive days from the day when the sheep cells were administered.

[2] = system: plaque forming cells in the spleen of mice; experiment: TEST 2 effect on plaque forming cells in the spleen of mice inoculated with sheep red blood cells, Balb/c (Run 1); format: in vivo, mouse; conditions: 4 weeks, intravascular sheep cells, four consecutive days
Description: as §1

rat adjuvant arthritis = experiment: TEST 4 effect on rat adjuvant arthritis; format: in vivo, Sprague-Dawley rats; conditions: 27 consecutive days
Description: The test animals were Sprague-Dawley rats at the age of 8 weeks and each group consisted of ten animals. An intracutaneous injection of 0.05 ml of a suspension of 0.5 mg of Mycobacterium butyricum in liquid paraffin was applied to each animal at the paw of the right rear limb. For 27 consecutive days from the day before the adjuvant injection, Compound (2) was orally administered at doses of 3, 10 and 30 mg/kg with measurement of the volume of the paw.

ddY mice = experiment: TEST 1 acute toxicity in mice; format: in vivo
Description: The test drug was suspended in aqueous 50% solution of Tween 80 and administered to ddY mice weighing 20-25 g orally or intraperitoneally in doses indicated in Table 1 below.

[3] = system: six strains as stipulated in the Labor Safety and Hygiene Law in Japan; experiment: mutagenicity test using six strains; format: cell-based; conditions: ~100 μg/plate
[4] = 1,000 mg/kg IP, during 7 days after administration
[5] = 5,000 mg/kg PO, during 7 days after administration

| Compound | % Control (edema, percentage of that in physiological saline control group) (delayed hypersensitibity; 3 mg/kg I.P.) [%] | % Control (edema, percentage of that in physiological saline control group) (delayed hypersensitibity; 10 mg/kg I.P.) [%] | % Control (edema, percentage of that in physiological saline control group) (delayed hypersensitibity; 30 mg/kg I.P.) [%] | % Control (edema, percentage of that in physiological saline control group) (delayed hypersensitibity; 30 mg/kg P.O.) [%] | % Control (edema, percentage of that in physiological saline control group) (delayed hypersensitibity; 100 mg/kg P.O.) [%] | % Control (edema, percentage of that in physiological saline control group) (delayed hypersensitibity; 300 mg/kg P.O.) [%] | further results |
| --- | --- | --- | --- | --- | --- | --- | --- |
| N-[4-(3-Ethoxycarbonyl-n-propyl)phenyl]-L-glutamine [Compound (9)] | 91.3 | 80.2 | 100.6 | 85.3 | 96.7 | 88.9 | – |
| N-(2-Ethoxycarbonylmethylphenyl)-L-glutamine [Compound (7)] | 92.4 | 91.1 | 86.8 | 92.8 | 84.8 | 82.3 | – |
| CCOC(=O)Cc1ccc(NC(=O)CC[C@H](N)C(=O)O)cc1 [Hydrochloride Compound (2)] | 79.6 | 90.7 | 90.0 | 81.8 | 75.7 | 67.2 | – |
| Cn1cnc([N+](=O)[O-])c1Sc1ncnc2nc[nH]c12 [Azathioprine, reference compound] | – | – | 61.0 | – | 58.2 | – | PFC × 2,500/spleen (Mean ± standard error) ([1]; 50 mg/kg P.O.): 46.7 ± 1.2 PFC × 2,500/spleen; PFC × 2,500/spleen (Mean ± standard error) ([2]; 50 mg/kg P.O.): 22.8 ± 2.40 PFC × 2,500/spleen |
| N-(4-Carboxymethylphenyl)-L-glutamine [Compound (2)] | 69.7 | 65.9 | 62.3 | 78.8 | 66.2 | 65.0 | action on secondary inflammations (rat adjuvant arthritis; 3, 10 and 30 mg/kg orally): exerted an inhibitory action on these secondary inflammations in every dose; dose dependency of action on secondary inflammations (rat adjuvant arthritis; 3, 10 and 30 mg/kg orally): any definite dose dependency was not appreciated; decrease in body weight accompanying secondary inflammations (rat adjuvant arthritis; orally): an improving tendency; inhibitory action on primary inflammations caused by direct reaction of the adjuvant (rat adjuvant arthritis; orally): very slight; No. of dead mice/No. of test animals (ddY mice; [4]): 0/5; No. of dead mice/No. of test animals (ddY mice; [5]): 0/5; PFC × 2,500/spleen (Mean ± standard error) ([1]; 30 mg/kg P.O.): 113.0 ± 20.4 PFC × 2,500/spleen; PFC × 2,500/spleen (Mean ± standard error) ([1]; 100 mg/kg P.O.): 160.0 ± 20.6 PFC × 2,500/spleen; PFC × 2,500/spleen (Mean ± standard error) ([1]; 300 mg/kg P.O.): 152.4 ± 11.4 PFC × 2,500/spleen; PFC × 2,500/spleen (Mean ± standard error) ([2]; 30 mg/kg P.O.): 99.0 ± 4.60 PFC × 2,500/spleen; PFC × 2,500/spleen (Mean ± standard error) ([2]; 100 mg/kg P.O.): 91.8 ± 18.6 PFC × 2,500/spleen; PFC × 2,500/spleen (Mean ± standard error) ([2]; 300 mg/kg P.O.): 73.4 ± 12.7 PFC × 2,500/spleen; mutagenicity [3]: negative in mutagenicity |
| N-[4-(2-Ethoxycarbonylethyl)phenyl]-L-glutamine [Compound (8)] | 76.2 | 76.7 | 81.0 | 85.0 | 80.6 | 92.3 | – |
| N-(4-n-Butyloxycarbonylmethylphenyl)-L-glutamine [Compound (5)] | 91.6 | 95.7 | 72.2 | 94.5 | 84.7 | 82.2 | – |
| CCOC(=O)C(C)(C)c1ccc(NC(=O)CC[C@H](N)C(=O)O)cc1 [Compound (14), N-[4-(1-Ethoxycarbonyl-1-methylethyl)phenyl]-L-glutamine] | 77.3 | 72.6 | 71.9 | – | – | – | – |
| N-(3-Ethoxycarbonylmethylphenyl)-L-glutamine [Compound (6)] | 94.6 | 83.2 | 84.3 | 81.1 | 82.8 | 83.1 | – |
| N-(4-Ethoxycarbonylmethylphenyl)-L-glutamine [Compound (1)] | 85.2 | 78.2 | 91.7 | 85.7 | 76.4 | 74.5 | No. of dead mice/No. of test animals (ddY mice; [4]): 0/5; No. of dead mice/No. of test animals (ddY mice; [5]): 0/5 |
| N-(4-ethoxycarbonylmethylphenyl)-L-glutamine hydrochloride [Compound (11)] | 77.7 | 67.3 | 84.1 | 89.8 | 80.8 | 83.7 | – |
| CCOC(=O)C(CC)c1ccc(NC(=O)CC[C@H](N)C(=O)O)cc1 (stereo partly drawn) [Compound (13), N-[4-(1-Ethoxycarbonyl-n-propyl)phenyl]-L-glutamine] | 82.1 | 70.5 | 64.2 | 89.6 | 87.4 | 75.7 | No. of dead mice/No. of test animals (ddY mice; mouse, in vivo): 0/5 |
| CCOC(=O)Cc1ccc(NC(=O)CC[C@@H](N)C(=O)O)cc1 [Compound (12), N-(4-Ethoxycarbonylmethylphenyl)-D-glutamine] | 76.1 | 107.9 | 89.1 | 85.4 | 81.7 | 80.7 | – |
| CCOC(=O)C(C)c1ccc(NC(=O)CC[C@H](N)C(=O)O)cc1 (stereo partly drawn) [Compound (15), N-[4-(1-Ethoxycarbonylethyl)phenyl]-L-glutamine] | 78.0 | 62.6 | 67.6 | – | – | – | – |
| N-[4-(2-Ethoxycarbonylvinyl)phenyl]-L-glutamine [Compound (10)] | 100 | 101 | 85.8 | 81.3 | 109.9 | 82.6 | – |
| N-(4-n-Propyloxycarbonylmethylphenyl)-L-glutamine [Compound (4)] | 70.4 | 80.2 | 91.7 | 91.7 | 91.9 | 79.6 | – |
